Tested on: 997537-175-T-J1-PDC complex spheroid viability
Assay: Anticancer human tumor 997537-175-T-J1-PDC patient-derived colon adenocarcinoma cell line growth inhibition [GQUAD]
Details: for IC50: curve of first compound; for viability, T/C: stronger effect = lower value; active = viability on the fitted dose curve at most 10% of control; inactive = the rest
Text: DNA G-quadruplex Stabilizer Agents in Combinations in Complex Spheroids
A high-throughput screen of multi-cell type tumor spheroids was designed to identify active combinations of DNA G-quadruplex stabilizer agents and targeted small molecules. Complex spheroids include a stromal component modeled by human endothelial cells (HUVEC) and fibroblasts modeled by human mesenchymal stem cells (MSCs). The concentration ranges selected for each drug and investigational agent were based upon clinically achievable concentrations if the clinical Cmax of the agent was known.
Compounds. The drugs and investigational agents: pidnarulex (CX-5461; NSC782164), APTO-253 (NSC789042), BRACO-19 (NSC847499), peposertib (NSC802822), ceralasertib (NSC780249), elimusertib (NSC800525), camonsertib (NSC841442), AZD-1390 (NSC803789), olaparib (NSC753686), talazoparib (NSC767125), ART-558 (NSC835418), sotorasib (NSC818433), MRTX-1133 (NSC836407), SN-38 (NSC673596), topotecan (NSC609699), etoposide (NSC141540), doxorubicin (NSC123127), gemcitabine (NSC613327), 5-fluorouracil (NSC19893), paclitaxel (NSC125973), vemurafenib (NSC761431), panobinostat (NSC761190), R-306465 (JNJ-16241199; NSC773264), adavosertib (NSC754352), TP-3654 (NSC805149), carboplatin (NSC241240), KSQ-4279 (NSC840948), and staurosporine (NSC755774) were obtained from the National Cancer Institute (NCI) Developmental Therapeutics Program Chemical Repository (34). The FDA-approved anticancer drug set is available from the NCI Developmental Therapeutics Program. […] The stock solutions were prepared in dimethyl sulfoxide (DMSO, Sigma-Aldrich, St. Louis, MO, cat. D2650) at 800-fold the tested concentration and stored at -70 degrees C prior to their use. All drugs and investigational agents were tested over a range starting from a high concentration at or near the clinical Cmax and decreasing in half-log increments. If the clinical Cmax for an agent had not been determined, the highest concentration tested was 10 microM.
2.3 Cell Culture. All cells were maintained in an incubator at 37 degrees C and 5% CO2 with 95% humidity. The PDC lines were cultured according to standard operating procedures established by the NCI PDMR. All PDCs were thawed and cultured in Matrigel-coated flasks prepared with a working solution of 1X Ham's F-12 nutrient mix, without supplementation (Invitrogen, cat. 11765054), 100 U/mL penicillin-streptomycin (Invitrogen, cat. 15140122), and 2.5% Matrigel (Corning Inc., cat. 354248) for the first three passages. The 857933-349-R-J2-PDC line was cultured in 6C/Colon 1B media, which includes advanced DMEM/F-12 (Thermo Fisher Scientific, cat. 12634028), 10 mM HEPES (Thermo Fisher Scientific, cat. 15630080), 1X GlutaMAX supplement (Thermo Fisher Scientific, cat. 35050061), 0.1 mg/mL primocin (InvivoGen, cat. ant-pm-2), 10% defined fetal bovine serum, heat inactivated (HyClone Laboratories Inc., cat. SH30070.03HI), 50% L-WRN conditioned media (ATCC, cat. CRL-3276), 1.25 mM N-Acetyl-L-cysteine (Sigma-Aldrich, cat. A9165), 10 mM nicotinamide (Sigma-Aldrich, cat. N0636), 1X B-27 supplement (Thermo Fisher Scientific, cat. 17504044), 1X N-2 supplement (Thermo Fisher Scientific, cat. 17502048), 10 microM Y-27632 dihydrochloride (Tocris Bioscience, cat. 1254), and 50 ng/mL human EGF recombinant protein (Thermo Fisher Scientific, cat. PHG0311). The 485176-168-R4-J1-PDC line was cultured in Panc media, which includes all 6C/Colon 1B media components plus 100 ng/mL human FGF-10 (Thermo Fisher Scientific, cat. 100-26), 500 nM SB-431542 (Selleckchem, cat. S1067), and gastrin (Tocris, cat. 3006).
[…]

[1] = second compound 0.0316 µM, first compound 0.0316 µM
[2] = second compound 0.0316 µM, first compound 0.1 µM
[3] = second compound 0.0316 µM, first compound 0.316 µM
[4] = second compound 0.0316 µM, first compound 1 µM
[5] = second compound 0.0316 µM, first compound 3.16 µM
[6] = second compound 0.0316 µM, first compound 10 µM
[7] = second compound 0.1 µM, first compound 0.0316 µM
[8] = second compound 0.1 µM, first compound 0.1 µM
[9] = second compound 0.1 µM, first compound 0.316 µM
[10] = second compound 0.1 µM, first compound 1 µM
[11] = second compound 0.1 µM, first compound 3.16 µM
[12] = second compound 0.1 µM, first compound 10 µM
[13] = second compound 0.316 µM, first compound 0.0316 µM
[14] = second compound 0.316 µM, first compound 0.1 µM
[15] = second compound 0.316 µM, first compound 0.316 µM
[16] = second compound 0.316 µM, first compound 1 µM
[17] = second compound 0.316 µM, first compound 3.16 µM
[18] = second compound 0.316 µM, first compound 10 µM
[19] = second compound 1 µM, first compound 0.0316 µM
[20] = second compound 1 µM, first compound 0.1 µM
[21] = second compound 1 µM, first compound 0.316 µM
[22] = second compound 1 µM, first compound 1 µM
[23] = second compound 1 µM, first compound 3.16 µM
[24] = second compound 1 µM, first compound 10 µM
[25] = second compound 3.16 µM, first compound 0.0316 µM
[26] = second compound 3.16 µM, first compound 0.1 µM
[27] = second compound 3.16 µM, first compound 0.316 µM
[28] = second compound 3.16 µM, first compound 1 µM
[29] = second compound 3.16 µM, first compound 3.16 µM
[30] = second compound 3.16 µM, first compound 10 µM
[31] = second compound 10 µM, first compound 0.0316 µM
[32] = second compound 10 µM, first compound 0.1 µM
[33] = second compound 10 µM, first compound 0.316 µM
[34] = second compound 10 µM, first compound 1 µM
[35] = second compound 10 µM, first compound 3.16 µM
[36] = second compound 10 µM, first compound 10 µM
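Note: spheroids exposed to the agents for 7 days.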

O=C(NO)c1cnc(N2CCN(S(=O)(=O)c3ccc4ccccc4c3)CC2)nc1 + Cc1cnc(CNC(=O)c2c(=O)c3ccc(N4CCCN(C)CC4)nc3n3c2sc2ccccc23)cn1
1.62 µM: IC50 (second compound 10 µM)
active: viability, T/C [6] 0.4% | viability, T/C [12] 0.47% | viability, T/C [18] 0.31% | viability, T/C [24] 0.31% | viability, T/C [30] 1.15% | viability, T/C [36] 0.29%
1.84 µM: IC50 (second compound 3.16 µM)
4.01 µM: IC50 (second compound 0.316 µM)
1.96 µM: IC50 (second compound 1 µM)
2.11 µM: IC50 (second compound 0.1 µM)
1.93 µM: IC50 (second compound 0.0316 µM)
inactive: viability, T/C [1] 107% | viability, T/C [2] 92.3% | viability, T/C [3] 96.3% | viability, T/C [4] 81.2% | viability, T/C [5] 26.8% | viability, T/C [7] 105% | viability, T/C [8] 97% | viability, T/C [9] 80.7% | viability, T/C [10] 69% | viability, T/C [11] 41.7% | viability, T/C [13] 94.7% | viability, T/C [14] 100% | viability, T/C [15] 85.6% | viability, T/C [16] 73.2% | viability, T/C [17] 69.8% | viability, T/C [19] 83.9% | viability, T/C [20] 90% | viability, T/C [21] 104% | viability, T/C [22] 93% | viability, T/C [23] 19.4% | viability, T/C [25] 104% | viability, T/C [26] 116% | viability, T/C [27] 93.5% | viability, T/C [28] 83.2% | viability, T/C [29] 21.4% | viability, T/C [31] 108% | viability, T/C [32] 88.7% | viability, T/C [33] 103% | viability, T/C [34] 77.5% | viability, T/C [35] 11.4%

O=C(c1cc(Cc2n[nH]c(=O)c3ccccc23)ccc1F)N1CCN(C(=O)C2CC2)CC1 + Cc1cnc(CNC(=O)c2c(=O)c3ccc(N4CCCN(C)CC4)nc3n3c2sc2ccccc23)cn1
> 10 µM: IC50 (second compound 0.0316 µM) | IC50 (second compound 0.1 µM) | IC50 (second compound 0.316 µM) | IC50 (second compound 1 µM) | IC50 (second compound 3.16 µM) | IC50 (second compound 10 µM)
inactive: viability, T/C [1] 95.5% | viability, T/C [2] 87.9% | viability, T/C [3] 88.9% | viability, T/C [4] 85.1% | viability, T/C [5] 82.4% | viability, T/C [6] 102% | viability, T/C [7] 92.3% | viability, T/C [8] 92.5% | viability, T/C [9] 82.1% | viability, T/C [10] 72.5% | viability, T/C [11] 85.8% | viability, T/C [12] 68.9% | viability, T/C [13] 82% | viability, T/C [14] 96% | viability, T/C [15] 90.1% | viability, T/C [16] 99.8% | viability, T/C [17] 95.5% | viability, T/C [18] 93.8% | viability, T/C [19] 85.6% | viability, T/C [20] 106% | viability, T/C [21] 105% | viability, T/C [22] 89.5% | viability, T/C [23] 97% | viability, T/C [24] 108% | viability, T/C [25] 117% | viability, T/C [26] 108% | viability, T/C [27] 95.3% | viability, T/C [28] 84.4% | viability, T/C [29] 99% | viability, T/C [30] 89.5% | viability, T/C [31] 103% | viability, T/C [32] 95.2% | viability, T/C [33] 106% | viability, T/C [34] 116% | viability, T/C [35] 95.9% | viability, T/C [36] 101%

Source: PubChem BioAssay AID2060487 (Molecular Pharmacology Branch, DTP, NCI, 2025)
